Measured values reported in ChEMBL document CHEMBL1145311 (Bioorg Med Chem Lett, 2006).

Molecular target: T1, Dihydrofolate reductase (Pneumocystis carinii, UniProt P16184)
T1 sequence (P16184 whole entry): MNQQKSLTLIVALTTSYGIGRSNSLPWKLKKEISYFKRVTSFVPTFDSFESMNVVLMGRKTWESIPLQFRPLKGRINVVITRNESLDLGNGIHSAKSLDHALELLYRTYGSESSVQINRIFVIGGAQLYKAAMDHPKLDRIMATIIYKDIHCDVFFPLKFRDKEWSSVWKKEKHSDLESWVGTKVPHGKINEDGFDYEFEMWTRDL
Description: Inhibition of Pneumocystis carinii DHFR

IC50: 210 nM
Structure (SMILES): Nc1nc(N)c2nc(CN3c4ccccc4CCc4ccccc43)cnc2n1
